Measured values published in US20100298381A1, “GAMMA SECRETASE MODULATORS” (Schering Corporation, priority 2007, published 2010).
pIC50: −log10 of the molar value.

Legend:
[1] = test system: Aβ42 in HEK293 cells overexpressing APP with Swedish and London mutations; experiment: Secretase reaction and Aβ analysis in whole cells, Aβ42 (ECL sandwich immunoassay); format: cell-based; details: Homo sapiens, 5 hour at 37° C.
Description: (§1) Secretase Reaction and Aβ Analysis in Whole Cells: HEK293 cells overexpressing APP with Swedish and London mutations were treated with the specified compounds for 5 hour at 37° C. in […] of DMEM medium containing 10% fetal bovine serum. At the end of the incubation, total Aβ, Aβ40 and Aβ42 were measured using electrochemiluminescence (ECL) based sandwich immunoassays. Total Aβ was determined using a pair of antibodies TAG-WO2 and biotin-4G8, Aβ40 was identified with antibody pairs TAG-G2-10 and biotin-4G8, while Aβ42 was identified with TAG-G2-11 and biotin-4G8. The ECL signal was measured using Sector Imager 2400 (Meso Scale Discovery).

[2] = test system: total Aβ in HEK293 cells overexpressing APP with Swedish and London mutations; experiment: Secretase reaction and Aβ analysis in whole cells, total Aβ (ECL sandwich immunoassay); format: cell-based; details: Homo sapiens, 5 hour at 37° C.
Description: as §1

| SMILES | pIC50 [1] | pIC50 [2] |
| --- | --- | --- |
| COc1cc(/C=C2\N/C(=N\CC3CC3)N(Cc3ccc(F)cc3)C2=O)ccc1-n1cnc(C)c1 [Example B6] | 7.03 to 7.34 | 4.70 to 6.11 |
| CCCC/N=C1\N/C(=C\c2ccc(-n3cnc(C)c3)c(OC)c2)C(=O)N1Cc1ccc(F)cc1 [Example B5] | 7.03 to 7.34 | 4.70 to 6.11 |
| CCCC/N=C1\N/C(=C\c2ccc(-n3cnc(C)c3)c(OC)c2)C(=O)N1C(C)c1cc(F)c(F)c(F)c1 (centres unmarked) [Example B11] | 7.03 to 7.34 | 4.70 to 6.11 |
| COc1cc(/C=C2\N/C(=N\CCO)N(C(C)c3cc(F)c(F)c(F)c3)C2=O)ccc1-n1cnc(C)c1 (centres unmarked) [Example B10] | 7.03 to 7.34 | 4.70 to 6.11 |
| CC/N=C1\N/C(=C\c2ccc(-n3cnc(C)c3)c(OC)c2)C(=O)N1Cc1cc(F)c(F)c(F)c1 [Example A9t] | 7.03 to 7.34 | 4.70 to 6.11 |
| COc1cc(/C=C2\N/C(=N\CC(F)(F)F)N([C@H](C)c3ccc(F)cc3)C2=O)ccc1-n1cnc(C)c1 [Example B18] | 7.03 to 7.34 | 4.70 to 6.11 |
| COc1cc(/C=C2\NC(=N)N([C@H](C)c3ccc(F)cc3)C2=O)ccc1-n1cnc(C)c1 [Example B13] | 7.03 to 7.34 | 4.70 to 6.11 |
| COc1cc(/C=C2\N/C(=N\CC3CC3)N(C(C)c3cc(F)c(F)c(F)c3)C2=O)ccc1-n1cnc(C)c1 (centres unmarked) [Example B12] | 7.03 to 7.34 | 4.70 to 6.11 |
| CCCC/N=C1\N/C(=C\c2ccc(-n3cnc(C)c3)c(OC)c2)C(=O)N1Cc1cc(F)c(F)c(F)c1 [Example B22] | 7.03 to 7.34 | 4.70 to 6.11 |
| COc1cc(/C=C2\N/C(=N\CCO)N(Cc3cc(F)c(F)c(F)c3)C2=O)ccc1-n1cnc(C)c1 [Example A9u] | 7.03 to 7.34 | 4.70 to 6.11 |
| CC/N=C1\N/C(=C\c2ccc(-n3cnc(C)c3)c(OC)c2)C(=O)N1Cc1ccc(F)cc1 [Example B2] | 7.03 to 7.34 | 4.70 to 6.11 |
| COc1cc(/C=C2\NC(=N)N(C(C)c3cc(F)c(F)c(F)c3)C2=O)ccc1-n1cnc(C)c1 (centres unmarked) [Example B7] | 7.03 to 7.34 | 4.70 to 6.11 |
| COc1cc(/C=C2\N/C(=N\CCO)N([C@H](C)c3ccc(F)cc3)C2=O)ccc1-n1cnc(C)c1 [Example B15] | 7.03 to 7.34 | 4.70 to 6.11 |
| COc1cc(/C=C2\N/C(=N\CC(F)(F)F)N(Cc3cc(F)c(F)c(F)c3)C2=O)ccc1-n1cnc(C)c1 [Example B23] | 7.03 to 7.34 | 4.70 to 6.11 |
| CC/N=C1\N/C(=C\c2ccc(-n3cnc(C)c3)c(OC)c2)C(=O)N1[C@H](C)c1ccc(F)cc1 [Example A9m] | 7.03 to 7.34 | 4.70 to 6.11 |
| COc1cc(/C=C2\N/C(=N\CC3CC3)N(Cc3cc(F)c(F)c(F)c3)C2=O)ccc1-n1cnc(C)c1 [Example A9r] | 7.03 to 7.34 | 4.70 to 6.11 |
| CCCC/N=C1\N/C(=C\c2ccc(-n3cnc(C)c3)c(OC)c2)C(=O)N1[C@H](C)c1ccc(F)cc1 [Example B14] | 7.03 to 7.34 | 4.70 to 6.11 |
| CC/N=C1\N/C(=C\c2ccc(-n3cnc(C)c3)c(OC)c2)C(=O)N1C(C)c1cc(F)c(F)c(F)c1 (centres unmarked) [Example B8] | 7.03 to 7.34 | 4.70 to 6.11 |
| COc1cc(/C=C2\N/C(=N\CCO)N(Cc3ccc(F)cc3)C2=O)ccc1-n1cnc(C)c1 [Example B4] | 7.03 to 7.34 | 4.70 to 6.11 |
